The structures appear in SMILES notation.

For test [1], the target named is T1, recombinant human 17β-HSD1 (Homo sapiens, UniProt P14061).
T1 construct: made in house; host or cells: Sd9 (Sf9) insect cells, baculovirus (Bac to Bac Expression System)
T1 sequence (P14061 1-328): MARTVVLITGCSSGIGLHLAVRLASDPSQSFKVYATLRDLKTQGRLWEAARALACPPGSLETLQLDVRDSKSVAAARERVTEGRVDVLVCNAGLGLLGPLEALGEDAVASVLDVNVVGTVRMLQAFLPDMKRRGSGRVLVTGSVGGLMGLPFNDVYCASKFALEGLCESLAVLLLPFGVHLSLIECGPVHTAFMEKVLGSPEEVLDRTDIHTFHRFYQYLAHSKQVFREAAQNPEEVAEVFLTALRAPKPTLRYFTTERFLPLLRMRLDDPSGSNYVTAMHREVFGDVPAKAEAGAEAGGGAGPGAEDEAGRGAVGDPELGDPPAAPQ
As to the kind of experiment: Inhibition of recombinant human 17β-HSD1 (estrone to estradiol conversion, HPLC/radioactivity). In kind it is biochemical. Particulars: compound 100 nM; 30 nM estrone, 1 mM NADPH, 30 min RT. In a few lines:
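Microsomal human 17β-HSD1 from Sf9 baculovirus (1 μg/ml) was incubated 30 min at RT in 20 mM KH2PO4 pH 7.4 with 30 nM ^3H-estrone, 1 mM NADPH and inhibitor at 1 μM or 0.1 μM (1% DMSO). Estrone and estradiol were separated by HPLC with radioactivity detection. % inhibition = 100 − % conversion relative to uninhibited control.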

The target in test [2] is T2, recombinant human 17β-HSD2 (Homo sapiens, UniProt P37059).
T2 construct: made in house; host or cells: Sd9 (Sf9) insect cells, baculovirus (Bac to Bac Expression System)
T2 sequence (P37059 1-387): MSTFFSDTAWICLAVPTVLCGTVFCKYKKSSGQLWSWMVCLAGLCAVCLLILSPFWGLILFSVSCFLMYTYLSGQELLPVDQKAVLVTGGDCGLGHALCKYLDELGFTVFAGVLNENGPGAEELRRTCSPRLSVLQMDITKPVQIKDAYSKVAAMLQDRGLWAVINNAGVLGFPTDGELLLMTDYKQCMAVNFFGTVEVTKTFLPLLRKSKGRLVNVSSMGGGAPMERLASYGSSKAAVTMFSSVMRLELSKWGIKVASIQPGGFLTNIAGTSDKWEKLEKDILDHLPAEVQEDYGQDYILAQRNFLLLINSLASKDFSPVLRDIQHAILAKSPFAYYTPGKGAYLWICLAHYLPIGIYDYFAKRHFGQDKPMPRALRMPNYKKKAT
The test can be described thus: Inhibition of recombinant human 17β-HSD2 (estradiol to estrone conversion, HPLC/radioactivity). Conditions: compound 1 μM; 50 nM estradiol, 1 mM NADH, 30 min RT. In kind it is biochemical. In a few lines:
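Membrane extract of Sf9 cells expressing recombinant human 17β-HSD2 (4 μg/ml), in 20 mM KH2PO4 pH 8.5 with 50 nM ^3H-spiked estradiol and 1 mM NADH, 30 min at RT, 1% DMSO. Compound at 1 μM or 0.1 μM; estrone formation by HPLC radioactivity, % inhibition relative to uninhibited conversion.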

The inhibition is the percentage by which the read-out fell short of the control. As to `C[C@]12CCC3c4cccc(F)c4CCC3C1[C@H](CCC(=O)Nc1ncc(F)cc1F)c1c[nH]nc12` (stereo partly drawn) [Compound 9, N-(3,5-difluoropyridin-2-yl)-3-((8aS,12S)-3-fluoro-8a-methyl-1,2,6b,7,8,8a,10,12,12a,12b-decahydronaphtho[2′,1′:4,5]indeno[1,2-c]pyrazol-12-yl)propanamide], the inhibition at 0.1 µM in test [1] was 82%. In addition, the inhibition at 1 µM in test [2] is 3%.

Turning to `C[C@]12CCC3c4cccc(F)c4CCC3C1[C@H](CCC(=O)Nc1cc(F)ccn1)c1c[nH]nc12` (stereo partly drawn) [Compound 15, 3-((8aS,12S)-3-fluoro-8a-methyl-1,2,6b,7,8,8a,10,12,12a,12b-decahydronaphtho[2′,1′:4,5]indeno[1,2-c]pyrazol-12-yl)-N-(4-fluoropyridin-2-yl)propanamide], in test [1], the inhibition at 0.1 µM is 96%. In test [2], the inhibition at 1 µM is 6%.

As to `C[C@]12CCC3c4cccc(F)c4CCC3C1[C@H](CCC(=O)Nc1ccccn1)c1c[nH]nc12` (stereo partly drawn) [Compound 18, 3-((8aS,12S)-3-fluoro-8a-methyl-1,2,6b,7,8,8a,10,12,12a,12b-decahydronaphtho[2′,1′:4,5]indeno[1,2-c]pyrazol-12-yl)-N-(pyridin-2-yl)propanamide], the inhibition at 0.1 µM in test [1] was found to be 91%. Further, in test [2], the inhibition at 1 µM was found to be 1%.

`COc1ccc(NC(=O)CC[C@@H]2c3c[nH]nc3[C@@]3(C)CCC4c5cccc(F)c5CCC4C23)nc1` (stereo partly drawn) [Compound 21, 3-((8aS,12S)-3-fluoro-8a-methyl-1,2,6b,7,8,8a,10,12,12a,12b-decahydronaphtho[2′,1′:4,5]indeno[1,2-c]pyrazol-12-yl)-N-(5-methoxypyridin-2-yl)propanamide]: the inhibition at 0.1 µM in test [1] stood at 97%. Also, the inhibition at 1 µM in test [2] came out at 4%.

In the case of `C[C@]12CCC3c4cccc(F)c4CCC3C1[C@H](CCC(=O)N1CCNC(=O)C1)c1c[nH]nc12` (stereo partly drawn) [Compound 24, 4-(3-((8aS,12S)-3-fluoro-8a-methyl-1,2,6b,7,8,8a,10,12,12a,12b-decahydronaphtho[2′,1′:4,5]indeno[1,2-c]pyrazol-12-yl)propanoyl)piperazin-2-one], in test [1], the inhibition at 0.1 µM is 83%. Moreover, the inhibition at 1 µM in test [2] was found to be 1%.

As for `C[C@]12CCC3c4cccc(F)c4CCC3C1[C@H](CCC(=O)Nc1cc3c([nH]c1=O)CCCC3)c1c[nH]nc12` (stereo partly drawn) [Compound 30, 3-((8aS,12S)-3-fluoro-8a-methyl-1,2,6b,7,8,8a,10,12,12a,12b-decahydronaphtho[2′,1′:4,5]indeno[1,2-c]pyrazol-12-yl)-N-(2-oxo-1,2,5,6,7,8-hexahydroquinolin-3-yl)propanamide], the inhibition at 0.1 µM in test [1] worked out at 95%. Further, the inhibition at 1 µM in test [2] amounted to 3%.

For `CN(C)C(=O)c1ccc(NC(=O)CC[C@@H]2c3c[nH]nc3[C@@]3(C)CCC4c5cccc(F)c5CCC4C23)nc1` (stereo partly drawn) [Compound 33, 6-(3-((8aS,12S)-3-fluoro-8a-methyl-1,2,6b,7,8,8a,10,12,12a,12b-decahydronaphtho[2′,1′:4,5]indeno[1,2-c]pyrazol-12-yl)propanamido)-N,N-dimethylnicotinamide], in test [1], the inhibition at 0.1 µM stood at 95%. Also, the inhibition at 1 µM in test [2] was found to be 8%.

With `CC(C)c1ccc(NC(=O)CC[C@@H]2c3c[nH]nc3[C@@]3(C)CCC4c5cccc(F)c5CCC4C23)nc1` (stereo partly drawn) [Compound 36, 3-((8aS,12S)-3-fluoro-8a-methyl-1,2,6b,7,8,8a,10,12,12a,12b-decahydronaphtho[2′,1′:4,5]indeno[1,2-c]pyrazol-12-yl)-N-(5-isopropylpyridin-2-yl)propanamide], the inhibition at 0.1 µM in test [1] worked out at 100%. For the same molecule, the inhibition at 1 µM in test [2] amounted to 8%.

As to `C[C@]12CCC3c4cccc(F)c4CCC3C1[C@H](CCC(=O)Nc1ccc(N3CCOCC3)cn1)c1c[nH]nc12` (stereo partly drawn) [Compound 39, 3-((8aS,12S)-3-fluoro-8a-methyl-1,2,6b,7,8,8a,10,12,12a,12b-decahydronaphtho[2′,1′:4,5]indeno[1,2-c]pyrazol-12-yl)-N-(5-morpholinopyridin-2-yl)propanamide], the inhibition at 0.1 µM in test [1] was 91%. Also, the inhibition at 1 µM in test [2] amounted to 9%.

As to `CN1CCN(c2ccc(NC(=O)CC[C@@H]3c4c[nH]nc4[C@@]4(C)CCC5c6cccc(F)c6CCC5C34)nc2)CC1` (stereo partly drawn) [Compound 42, 3-((8aS,12S)-3-fluoro-8a-methyl-1,2,6b,7,8,8a,10,12,12a,12b-decahydronaphtho[2′,1′:4,5]indeno[1,2-c]pyrazol-12-yl)-N-(5-(4-methylpiperazin-1-yl)pyridin-2-yl)propanamide], the inhibition at 0.1 µM in test [1] was determined as 91%. In addition, in test [2], the inhibition at 1 µM is 34%.

As to `COc1ccnc(NC(=O)CC[C@@H]2c3c[nH]nc3[C@@]3(C)CCC4c5cccc(F)c5CCC4C23)c1` (stereo partly drawn) [Compound 48, 3-((8aS,12S)-3-fluoro-8a-methyl-1,2,6b,7,8,8a,10,12,12a,12b-decahydronaphtho[2′,1′:4,5]indeno[1,2-c]pyrazol-12-yl)-N-(4-methoxypyridin-2-yl)propanamide], the inhibition at 0.1 µM in test [1] turned out to be 91%. In addition, the inhibition at 1 µM in test [2] is 5%.

Turning to `C[C@]12CCC3c4cccc(F)c4CCC3C1[C@H](CCC(=O)Nc1cnccn1)c1c[nH]nc12` (stereo partly drawn) [Compound 51, 3-((8aS,12S)-3-fluoro-8a-methyl-1,2,6b,7,8,8a,10,12,12a,12b-decahydronaphtho[2′,1′:4,5]indeno[1,2-c]pyrazol-12-yl)-N-(pyrazin-2-yl)propanamide], the inhibition at 0.1 µM in test [1] came to 90%. For the same molecule, the inhibition at 1 µM in test [2] amounted to 1%.

On to `Cn1ccc(NC(=O)CC[C@@H]2c3c[nH]nc3[C@@]3(C)CCC4c5cccc(F)c5CCC4C23)n1` (stereo partly drawn) [Compound 54, 3-((8aS,12S)-3-fluoro-8a-methyl-1,2,6b,7,8,8a,10,12,12a,12b-decahydronaphtho[2′,1′:4,5]indeno[1,2-c]pyrazol-12-yl)-N-(1-methyl-1H-pyrazol-3-yl)propanamide], for which the inhibition at 0.1 µM in test [1] turned out to be 87%. In test [2], the inhibition at 1 µM turned out to be 8%.

For the molecule `C[C@]12CCC3c4cccc(F)c4CCC3C1[C@H](CCC(=O)N1Cc3ccccc3C1)c1c[nH]nc12` (stereo partly drawn) [Compound 57, 3-((8aS,12S)-3-fluoro-8a-methyl-1,2,6b,7,8,8a,10,12,12a,12b-decahydronaphtho[2′,1′:4,5]indeno[1,2-c]pyrazol-12-yl)-1-(isoindolin-2-yl)propan-1-one], the inhibition at 0.1 µM in test [1] was determined as 92%. Further, in test [2], the inhibition at 1 µM turned out to be 16%.

Take `COc1ccc(NC(=O)CC[C@@H]2c3c[nH]nc3[C@@]3(C)CCC4c5ccc(F)cc5CCC4C23)nc1` (stereo partly drawn) [Compound 84, 3-((8aS,12S)-4-fluoro-8a-methyl-1,2,6b,7,8,8a,10,12,12a,12b-decahydronaphtho[2′,1′:4,5]indeno[1,2-c]pyrazol-12-yl)-N-(5-methoxypyridin-2-yl)propanamide]: in test [1], the inhibition at 0.1 µM amounted to 87%. In addition, the inhibition at 1 µM in test [2] was found to be 2%.

In the case of `CC(C)c1ccc(NC(=O)CC[C@@H]2c3c[nH]nc3[C@@]3(C)CCC4c5ccc(F)cc5CCC4C23)nc1` (stereo partly drawn) [Compound 87, 3-((8aS,12S)-4-fluoro-8a-methyl-1,2,6b,7,8,8a,10,12,12a,12b-decahydronaphtho[2′,1′:4,5]indeno[1,2-c]pyrazol-12-yl)-N-(5-isopropylpyridin-2-yl)propanamide], the inhibition at 0.1 µM in test [1] came to 87%. In test [2], the inhibition at 1 µM is 6%.

Values taken from patent US20220041647A1, “ESTRA-1,3,5(10)-TRIENE COMPOUNDS CONDENSED IN POSITION 16(17) WITH A PYRAZOLE RING AS INHIBITORS OF 17-HSD1” (FORENDO PHARMA LTD, priority 2018, published 2022).
